Measurements reported in patent US20250235429A1, “TREATMENT OF DISEASES VIA ADMINISTRATION OF BUNTANETAP AND AN ANTIDIABETIC AGENT” (ANNOVIS BIO, INC., priority 2024, published 2025).
Marks after values point to notes of the source that are not given here.

Tests used:
[1] = tested on: patients with mild to moderate AD; assay: Phase II/III dose-ranging study of buntanetap in mild to moderate AD (ADAS-Cog 11); assay type: in vivo, human
Procedure: A randomized, double-blind, placebo-controlled Phase II/III study trial investigating the efficacy, safety, and tolerability of buntanetap in patients with mild to moderate AD was conducted. This was a dose-ranging study where patients received either one of three doses of buntanetap (7.5 mg, 15 mg, or 30 mg) or placebo on top of their standard of care for 12 weeks. In this study, over 700 patients were screened, a total of 353 patients were enrolled, and 325 patients completed the study across 54 sites in the US. The study included mild to moderate AD patients whose Mini Mental State Examination (MMSE) scores at baseline ranged from 14 to 24. (www.clinicaltrials.gov (NCT05686044)).
Beyond safety, the trial assessed the changes in two co-primary endpoints: Alzheimer's Disease Assessment Scale-Cognitive Subscale 11 (ADAS-Cog 11) and Alzheimer's Disease Cooperative Study Clinician's Global Impression of Change (ADCS-CGIC), which assess cognition and activities of daily living. The study monitored for safety and collected plasma to measure several biomarkers to assess the disease state, potential disease progression, and treatment effects.

[2] = cited from earlier work
[3] = tested on: APP, Tau, and aSYN in the cerebrospinal fluid (CSF) of MCI subjects; settings: cited from earlier work
[4] = tested on: early AD patients and early PD patients; settings: cited from earlier work
[5] = tested on: APP in SH-SY-5Y human neuroblastoma cells; settings: cited from earlier work
[6] = tested on: APP and its fragments; settings: APP/PS1 transgenic mice; cited from earlier work
[7] = tested on: tau; settings: unpublished observation, Peter Davies Laboratory; cited from earlier work
[8] = tested on: tau; settings: Human tau mice; unpublished observation; cited from earlier work
[9] = tested on: aSYN; settings: neuroblastoma cells; cited from earlier work
[10] = tested on: rat acute glaucoma model; settings: cited from earlier work
[11] = tested on: human SNCAA53T tg mouse model of PD; settings: cited from earlier work
[12] = tested on: traumatic brain injury rats; settings: cited from earlier work
[13] = tested on: fully differentiated Down syndrome nerve cells; settings: cited from earlier work
[14] = tested on: Huntingtin Protein; settings: through Translational Suppression; cited from earlier work

## CN1CC[C@]2(C)c3cc(OC(=O)Nc4ccccc4)ccc3N(C)C12 (stereo partly drawn) [Buntanetap, (3aR)-1,3a,8-trimethyl-1,2,3,3a,8,8a-hexahydropyrrolo[2,3-b]indol-5-yl phenylcarbamate]
[1]; 7.5 mg
  Non-Responders (Number): 5
  Non-Responders (Percentage): (26.32%)
  Responders (Number): 14
  Responders (Percentage): (73.68%)**
[1]; 15 mg
  Non-Responders (Number): 7
  Non-Responders (Percentage): (28.00%)
  Responders (Number): 18
  Responders (Percentage): (72.00%)**
[1]; 30 mg
  Non-Responders (Number): 3
  Non-Responders (Percentage): (12.50%)
  Responders (Number): 21
  Responders (Percentage): (87.50%)***
[1]; 30 mg group
  difference in the proportion of participants who improved relative to placebo: three-fold
[1]; patients with mild AD, 7.5, 15, 30 mg, 12 weeks
  improvement in ADAS-Cog 11 scores in each treatment dose relative to placebo: significantly higher improvement
[1]; population with confirmed early AD (FIG. 2B)
  improvement in cognition: dose-dependent improvement
[2]; MCI subjects
  half-life in CSF: > 12 h
[2]; doses up to 4×60 mg daily X 10 days
  tolerability: well tolerated
[2]; in vivo
  concentration in brain relative to plasma: about 8 times
[2]; plasma, all doses, biphasic clearance
  terminal half-life: 4.3 to 4.7 h
[3]; MCI subjects, 4×60 mg/day
  levels of APP, Tau, and aSYN in the cerebrospinal fluid (CSF): normalized
[3]; MCI subjects
  CSF A342: trend to lower
  CSF levels of sAPPa, sAPPP, t-tau, p-tau, and specific inflammatory markers: significantly lowered
[3]; human CSF of MCI subjects
  inflammation: lowered
[4]; AD and PD cohorts
  levels of neurotoxic proteins and inflammatory factors (biomarker data): trend in lowering
[4]; AD and PD patients
  axonal and synaptic function: improved
  blood brain barrier crossing: crossed the blood brain barrier
  inflammatory markers: reduced
  neurotoxic protein biomarkers: reduced
[4]; AD patients, 80 mg QD
  ADAS-Cog11 and WAIS coding (psychometric tests): statistically significant improvements
[4]; AD patients, statistical significance versus baseline at 80 mg dose but not placebo
  cognition as measured by ADAS-Cog11 and WAIS coding speed: improved
[4]; PD patients, 5-80 mg QD
  MDS-UPDRS and WAIS coding (psychometric tests): statistically significant improvements
[4]; PD patients, all doses, maximum improvement for 10 & 20 mg
  motor function as measured by MDS-UPDRS (Part II, III, IV and total): improved
[4]; PD patients, significant versus placebo in 5 mg, 20 mg and 80 mg arms
  WAIS speed and accuracy: improved
[4]; doses up to 80 mg in both AD and PD patients
  safety and tolerability: well tolerated
[4]; plasma, without evidence for a plateau up to 80 mg QD
  Cmax and AUC: increased with dose
[5]
  levels of APP in vitro: lowers
[6]
  levels of APP and all its fragments: lowers
[7]
  tau in vitro: lowers
[8]
  tau in vivo: lowers
[9]
  aSYN in vitro: lowers
[10]; acute glaucoma
  retina: Preserved
[10]; rat acute glaucoma model
  nerve cells: protected
[11]
  colonic motility: Restored
[12]; rat brain after TBI
  inflammation: lowered
[12]; rat striatum after traumatic brain injury (TBI)
  impaired synaptic transmission: Normalized
[12]; rat substantia Ingra after TBI
  nerve cells: protected
[12]; traumatic brain injury rats
  memory and learning: Preserved
[13]
  anterograde and retrograde vesicle transport: Normalized
[14]
  levels of Huntingtin Protein: reduced
